The values that follow come from patent publication US12594268B2, “Methods of treating Fabry disease in patients having a mutation in the GLA gene” (Amicus Therapeutics, Inc., priority 2018, dated 2026).

Positions count from the first letter of the chain named.

Common to all, as to assay type: cell-based
One assay addresses T1, α-Gal A mutant form Y88S (Homo sapiens, UniProt P06280, Y88S).
T1 construct: expressed in transfected cells; host or cells: HEK-293
T1 sequence (P06280 32-429 Y88S): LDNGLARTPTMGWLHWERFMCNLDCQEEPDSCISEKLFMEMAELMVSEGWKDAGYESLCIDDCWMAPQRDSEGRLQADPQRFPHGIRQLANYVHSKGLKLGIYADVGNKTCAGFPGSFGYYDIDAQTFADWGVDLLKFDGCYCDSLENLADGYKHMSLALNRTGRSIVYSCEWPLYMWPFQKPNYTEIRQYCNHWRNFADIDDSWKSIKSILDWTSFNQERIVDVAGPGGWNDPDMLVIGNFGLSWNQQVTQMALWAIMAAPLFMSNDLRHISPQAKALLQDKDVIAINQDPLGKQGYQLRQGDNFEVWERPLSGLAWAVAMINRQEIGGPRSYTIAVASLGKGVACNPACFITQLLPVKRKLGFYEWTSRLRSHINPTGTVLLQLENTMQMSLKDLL
The assay can be described thus: α-Gal A activity in lysates of transfected HEK-293 cells, Y88S. The conditions noted are these: Y-88S. The protocol: (§1) Baseline and 10 μM migalastat α-Gal A activity: Differences in the α-Gal A activity between lysates incubated in the absence and presence of 10 μM migalastat were determined using a one-tailed, Mann Whitney U test; an increase at 10 μM migalastat with a p<0.05 was considered significant.
(§2) 10 μM migalastat α-Gal A activity (% WT)=(α-Gal A activity in mutant transfected cell lysates incubated with 10 μM migalastat÷α-Gal A activity in wild-type transfected cell lysates without migalastat)*100.
(§3) Absolute increase (% WT)=is the 10 μM migalastat α-Gal A activity (% WT) minus the baseline α-Gal A activity (% WT).
(§4) Relative increase is the 10 μM migalastat α-Gal A activity in mutant transfected cell lysates÷baseline α-Gal A activity in mutant transfected cell lysates incubated without migalastat.

The target in assay [1] is T2, α-Gal A mutant form Y216S (Homo sapiens, UniProt P06280, Y216S).
T2 construct: expressed in transfected cells; host or cells: HEK-293
T2 sequence (P06280 32-429 Y216S): T1 sequence (P06280 32-429 Y88S) with S57Y, Y185S
Kind of assay: α-Gal A activity in lysates of transfected HEK-293 cells, Y216S. The method, then:
as §1, §2, §3, §4

For a further assay, the target named is T3, α-Gal A mutant form M96V (Homo sapiens, UniProt P06280, M96V).
T3 construct: expressed in transfected cells; host or cells: HEK-293
T3 sequence (P06280 32-429 M96V): T1 sequence (P06280 32-429 Y88S) with S57Y, M65V
The assay can be described thus: α-Gal A activity in lysates of transfected HEK-293 cells, M96V. The method, then:
as §1, §2, §3, §4

In assay [2] the target is T4, α-Gal A mutant form R112L (Homo sapiens, UniProt P06280, R112L).
T4 construct: expressed in transfected cells; host or cells: HEK-293
T4 sequence (P06280 32-429 R112L): T1 sequence (P06280 32-429 Y88S) with S57Y, R81L
Kind of assay: α-Gal A activity in lysates of transfected HEK-293 cells, R112L. The protocol:
as §1, §2, §3, §4

Assay [3] concerns the target T5, α-Gal A mutant form W204L (Homo sapiens, UniProt P06280, W204L).
T5 construct: expressed in transfected cells; host or cells: HEK-293
T5 sequence (P06280 32-429 W204L): T1 sequence (P06280 32-429 Y88S) with S57Y, W173L
Kind of assay: α-Gal A activity in lysates of transfected HEK-293 cells, W204L. The method, then: as §1, §2, §3, §4

Setting [4] is: 10 μM migalastat minus baseline.
The mark [5] stands for this setting: 10 μM migalastat ÷ baseline activity.
Where [6] appears, read: HEK-293 lysates, 10 nM migalastat as printed, 5 days, mean ± SEM.
Setting [7] is: HEK-293 lysates, 10 μM migalastat, 5 days, mean ± SEM.

For `OC[C@H]1NC[C@H](O)[C@@H](O)[C@H]1O` [migalastat, (2R,3S,4R,5S)-2-(hydroxymethyl) piperdine-3,4,5-triol], the “Absolute increase (% WT)” value is 10.3 % WT on α-Gal A mutant form Y88S (setting [4]); 32.7 % WT in assay [1] (setting [4]); 24.2 % WT at α-Gal A mutant form M96V (setting [4]); 7.5 % WT in assay [2] (10 μM migalastat minus baseline (baseline BLD)); 47.4 % WT in assay [3] (setting [4]). Moreover, the Relative increase on α-Gal A mutant form Y88S (setting [5]) was 3.67; in assay [1] (setting [5]), 17.70; at α-Gal A mutant form M96V (setting [5]) it was 2.68; in assay [3] (setting [5]) it was 2.02. Besides, the “10 nM migalastat α-Gal A activity” value on α-Gal A mutant form Y88S (setting [6]) amounted to 5542 ± 376 nmol/mg/h; in assay [1] (setting [6]), 11238 ± 751 nmol/mg/h. Further, the “10 μM migalastat α-Gal A activity (% WT)” value is 14.1 ± 1.3 % WT on α-Gal A mutant form Y88S (setting [7]); 34.7 ± 1.8 % WT in assay [1] (setting [7]); 38.1 ± 2.4 % WT on α-Gal A mutant form M96V (setting [7]); 7.5 ± 1.1 % WT in assay [2] (setting [7]); 84.3 ± 5.9 % WT in assay [3] (setting [7]). Also, the “10 μM migalastat α-Gal A activity” value on α-Gal A mutant form M96V (setting [7]) was 14612 ± 1009 nmol/mg/h; in assay [2] (HEK-293 lysates, 10 μM migalastat, 5 days, mean ± SEM, baseline BLD), 2364 ± 296 nmol/mg/h; in assay [3] (setting [7]), 32649 ± 3037 nmol/mg/h.
